This is an account of results in ChEMBL document CHEMBL4118235, “The recent progress of isoxazole in medicinal chemistry” (Bioorg Med Chem, 2018).

Assay [1] concerns the target T1, Protein deacetylase HDAC6 (Homo sapiens, UniProt Q9UBN7).
T1 sequence (Q9UBN7 whole entry): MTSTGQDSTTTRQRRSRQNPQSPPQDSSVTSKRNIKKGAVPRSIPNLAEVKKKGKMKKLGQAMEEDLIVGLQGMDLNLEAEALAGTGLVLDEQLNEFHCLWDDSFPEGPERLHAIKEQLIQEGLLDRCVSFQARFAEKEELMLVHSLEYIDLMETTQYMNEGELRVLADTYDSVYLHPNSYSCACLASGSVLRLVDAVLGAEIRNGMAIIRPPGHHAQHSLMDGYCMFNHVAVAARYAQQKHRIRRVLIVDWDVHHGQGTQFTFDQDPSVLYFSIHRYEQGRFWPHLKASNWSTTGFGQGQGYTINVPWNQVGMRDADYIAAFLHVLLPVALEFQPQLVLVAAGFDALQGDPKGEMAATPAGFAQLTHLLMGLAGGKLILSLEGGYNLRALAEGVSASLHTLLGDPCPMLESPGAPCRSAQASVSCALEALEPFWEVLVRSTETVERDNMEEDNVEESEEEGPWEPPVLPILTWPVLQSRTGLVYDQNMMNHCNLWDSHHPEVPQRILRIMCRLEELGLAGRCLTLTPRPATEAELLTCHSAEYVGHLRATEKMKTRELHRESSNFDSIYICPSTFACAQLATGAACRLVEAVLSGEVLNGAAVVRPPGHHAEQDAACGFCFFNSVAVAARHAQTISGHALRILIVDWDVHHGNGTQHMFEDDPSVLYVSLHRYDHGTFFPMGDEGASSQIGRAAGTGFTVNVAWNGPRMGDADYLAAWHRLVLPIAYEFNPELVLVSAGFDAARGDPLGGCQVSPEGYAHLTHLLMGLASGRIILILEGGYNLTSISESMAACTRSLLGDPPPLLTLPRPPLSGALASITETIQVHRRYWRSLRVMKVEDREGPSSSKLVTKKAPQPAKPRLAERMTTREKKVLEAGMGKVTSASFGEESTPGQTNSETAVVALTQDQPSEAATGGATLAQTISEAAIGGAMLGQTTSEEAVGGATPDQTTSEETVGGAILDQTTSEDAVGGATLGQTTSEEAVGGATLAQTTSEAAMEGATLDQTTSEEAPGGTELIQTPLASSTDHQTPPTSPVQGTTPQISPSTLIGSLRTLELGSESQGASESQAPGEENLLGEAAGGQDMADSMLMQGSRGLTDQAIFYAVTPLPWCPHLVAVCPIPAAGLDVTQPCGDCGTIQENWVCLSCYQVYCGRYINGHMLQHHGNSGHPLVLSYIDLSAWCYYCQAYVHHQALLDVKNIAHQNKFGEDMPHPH
Nature of the assay: Inhibition of recombinant human full length HDAC6 expressed in baculovirus infected Sf9 insect cells using RHKKAC as substrate incubated for 5 to 10 mins followed by substrate addition measured after 2 hrs by fluorescence assay.

The species entered for assay [2] is Homo sapiens. In words: Selectivity ratio of IC50 for recombinant human full length HDAC1 expressed in baculovirus infected Sf9 insect cells to IC50 for recombinant human full length HDAC6 expressed in baculovirus infected Sf9 insect cells.
Assay [3] is filed under the species Homo sapiens. In words: Selectivity ratio of IC50 for human HDAC2 to IC50 for recombinant human full length HDAC6 expressed in baculovirus infected Sf9 insect cells.
Assay [4] is filed under the species Homo sapiens. In words: Selectivity ratio of IC50 for human HDAC3 to IC50 for recombinant human full length HDAC6 expressed in baculovirus infected Sf9 insect cells.
The subject of the next assay is MCF7. Nature of the assay: Antiproliferative activity against human MCF7 cells after 48 hrs by MTT assay. The assay is classed as functional, cell-based. Particulars: MCF7, 48 h.
The next assay deals with HeLa. In words: Antiproliferative activity against human HeLa cells after 48 hrs by MTT assay. The assay is classed as functional, cell-based.
The subject of assay [5] is HCT-116. In words: Antitumor activity against human HCT116 cells xenografted in BALB/c nude mouse assessed as tumor growth inhibition at 50 mg/kg, ip for 16 days. The format is functional. Particulars: HCT-116, ip, 384 h, read-out: TGI.
Assay [6] relates to HCT-116. In words: Antitumor activity against human HCT116 cells xenografted in BALB/c nude mouse assessed as tumor growth inhibition at 100 mg/kg, ip for 16 days. The assay is classed as functional. Particulars: HCT-116, ip, 384 h, read-out: TGI.
Assay [7] relates to Mycobacterium tuberculosis. Nature of the assay: Antimycobacterial activity against Mycobacterium tuberculosis H37Rv. The assay is classed as functional.
In the next assay the test system is Staphylococcus aureus. Nature of the assay: Antibacterial activity against Staphylococcus aureus ATCC 6538P after 24 hrs by agar well diffusion method. The format is functional.
The test system of a further assay is Escherichia coli. Nature of the assay: Antibacterial activity against Escherichia coli ATCC 8739 after 24 hrs by agar well diffusion method. Particulars: ATCC 8739, 24 h. The assay is classed as functional.
For a further assay, the system named is MC-38. In words: Cytotoxicity against mouse Colon 38 cells after 5 days by hemocytometry. The assay is classed as functional, cell-based. Particulars: MC-38, 120 h.
For another assay, the system named is CT26. Nature of the assay: Cytotoxicity against mouse CT26 cells after 5 days by hemocytometry. Particulars: CT26, 120 h. The assay is classed as functional, cell-based.

Converted amounts (≈) assume the structure as drawn.

Take `CCCCCCC(=O)Nc1ccc(-c2cc(C(=O)NCc3ccc(C(=O)NO)cc3)no2)cc1`: in assay [1], the IC50 is under 0.01 µM. For the same compound, the Ratio IC50 in the assay filed under Homo sapiens [2], in the assay listed under Homo sapiens [3] and in the assay listed under Homo sapiens [4] was over 500 throughout.
`CC(C)(C)OC(=O)Nc1cccc(-c2cc(C(=O)NCc3ccc(C(=O)NO)cc3)no2)c1`: the IC50 in assay [1] was under 0.01 µM. Moreover, the Ratio IC50 in the assay filed under Homo sapiens [2], in the assay listed under Homo sapiens [3] and in the assay listed under Homo sapiens [4] was over 500 in each case.
As for `COc1ccc(-c2cc(-c3cccs3)on2)cc1OC`, the IC50 in the assay with MCF7 came out at 19.5 µM; with HeLa, 39.2 µM.
For `CCc1cc(-c2oncc2-c2ccc(OC)cc2)c(O)cc1OC`, the inhibition in vivo at 50 mg/kg with HCT-116 [5] is 49.5%. The inhibition in vivo at 100 mg/kg in the assay with HCT-116 [6] came to 70.3%.
On to `CCOC(=O)c1cc(/C=C/c2ccnc3ccccc23)on1`, for which the MIC in [7] is 0.2 µM (≈ 0.0589 µg/mL).
With `O=[N+]([O-])c1ccc(-c2cc(C3CC3)no2)cc1`, the MIC against Staphylococcus aureus and against Escherichia coli was 25 mg/L (≈ 109 µM) in each case.
As to `CC(C)(C)OC(=O)Nc1ccc(-c2cc(C(=O)NCc3ccc(C(=O)NO)cc3)no2)cc1`, the IC50 in assay [1] was under 0.01 µM. For the same compound, the Ratio IC50 in the assay filed under Homo sapiens [2], in the assay filed under Homo sapiens [3] and in the assay filed under Homo sapiens [4] was over 500 each time.
Regarding `O=C(Nc1ccc(Cl)cc1)c1ccno1`, the IC50 in the assay on MC-38 and with CT26 was 2.5 mg/L (≈ 11.2 µM) throughout.
For the compound `CCCCCCC(=O)Nc1cccc(-c2cc(C(=O)NCc3ccc(C(=O)NO)cc3)no2)c1`, in assay [1], the IC50 is under 0.01 µM. Also, the Ratio IC50 in the assay filed under Homo sapiens [2], in the assay filed under Homo sapiens [3] and in the assay listed under Homo sapiens [4] was over 500 in each case.
